Laboratory results taken from PMC10303200 (ACS Central Science, 2023).

Biological target: T1, PHA-E (Phaseolus vulgaris erythroagglutinin) (Phaseolus vulgaris, UniProt P05088)
T1 construct: purchased Vector Laboratories (Newark, CA, USA)
Type: binding
Conditions: read-out: Kd (Native); pH 6.9

T1 sequence (P05088 22-275 limits assumed): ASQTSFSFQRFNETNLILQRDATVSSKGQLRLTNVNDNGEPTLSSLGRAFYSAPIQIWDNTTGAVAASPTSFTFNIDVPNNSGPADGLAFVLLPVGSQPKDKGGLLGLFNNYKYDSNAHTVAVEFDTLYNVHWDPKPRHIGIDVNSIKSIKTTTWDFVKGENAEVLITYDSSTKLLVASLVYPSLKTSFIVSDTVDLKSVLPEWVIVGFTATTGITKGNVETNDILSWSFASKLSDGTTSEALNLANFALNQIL

Row | Compound | Kd [µM]
1 | CC(=O)N[C@H]1[C@H](O[C@H]2[C@H](O)[C@@H](NC(C)=O)C(O)O[C@@H]2CO[C@@H]2O[C@@H](C)[C@@H](O)[C@@H](O)[C@@H]2O)O[C@H](CO)[C@@H](O[C@@H]2O[C@H](CO[C@H]3O[C@H](CO)[C@@H](O)[C@H](O)[C@@H]3O[C@@H]3O[C@H](CO)[C@@H](O)[C@H](O)[C@H]3NC(C)=O)[C@@H](O)[C@H](O[C@H]3O[C@H](CO)[C@@H](O)[C@H](O)[C@@H]3O[C@@H]3O[C@H](CO)[C@@H](O)[C@H](O)[C@H]3NC(C)=O)[C@@H]2O)[C@@H]1O (stereo partly drawn) [HexNAc4Hex3Fuc1] | 18.6 ± 3.5
2 | CC(=O)N[C@H]1[C@H](O[C@H]2[C@H](O)[C@@H](NC(C)=O)C(O)O[C@@H]2CO[C@@H]2O[C@@H](C)[C@@H](O)[C@@H](O)[C@@H]2O)O[C@H](CO)[C@@H](O[C@@H]2O[C@H](CO[C@H]3O[C@H](CO)[C@@H](O)[C@H](O)[C@@H]3O[C@@H]3O[C@H](CO)[C@@H](O[C@@H]4O[C@H](CO)[C@H](O)[C@H](O)[C@H]4O)[C@H](O)[C@H]3NC(C)=O)[C@@H](O)[C@H](O[C@H]3O[C@H](CO)[C@@H](O)[C@H](O)[C@@H]3O[C@@H]3O[C@H](CO)[C@@H](O[C@@H]4O[C@H](CO)[C@H](O)[C@H](O)[C@H]4O)[C@H](O)[C@H]3NC(C)=O)[C@@H]2O)[C@@H]1O (stereo partly drawn) [HexNAc4Hex5Fuc1] | 12.3 ± 3.6
3 | CC(=O)N[C@H]1[C@H](O[C@H]2[C@H](O)[C@@H](NC(C)=O)C(O)O[C@@H]2CO)O[C@H](CO)[C@@H](O[C@@H]2O[C@H](CO[C@H]3O[C@H](CO)[C@@H](O)[C@H](O)[C@@H]3O[C@@H]3O[C@H](CO)[C@@H](O[C@@H]4O[C@H](CO)[C@H](O)[C@H](O)[C@H]4O)[C@H](O)[C@H]3NC(C)=O)[C@@H](O)[C@H](O[C@H]3O[C@H](CO)[C@@H](O)[C@H](O)[C@@H]3O[C@@H]3O[C@H](CO)[C@@H](O[C@@H]4O[C@H](CO)[C@H](O)[C@H](O)[C@H]4O)[C@H](O)[C@H]3NC(C)=O)[C@@H]2O)[C@@H]1O (stereo partly drawn) [HexNAc4Hex5] | 13.1 ± 0.8
